Results as given in ChEMBL document CHEMBL1201862, “PubChem BioAssay data set” (2004).
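Grown in 96-well plates, cells were treated for 48 hours with each compound at five concentrations. Insufficient inhibition: endpoint recorded as highest concentration tested. At the GI50, growth is halved.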 Active and inactive are the calls of the source. Cut-off read from the data, not from the text of the source: active = GI50 up to about 1.1 µM and inactive = higher.

Tests used:
Assay in all cases: DTP human tumour cell line panel, 48 h
SNB-19 = test system: SNB-19
OVCAR-5 = test system: OVCAR-5
U-251 = test system: U-251
UACC-257 = test system: UACC-257
SW-620 = test system: SW-620
KM12 = test system: KM12
NCI-H226 = test system: NCI-H226
HT-29 = test system: HT-29
SK-MEL-2 = test system: SK-MEL-2
MCF7 = test system: MCF7
NCI/ADR-RES = test system: NCI/ADR-RES
HOP-62 = test system: HOP-62
NCI-H23 = test system: NCI-H23
OVCAR-3 = test system: OVCAR-3
MDA-MB-231 = test system: MDA-MB-231
SK-OV-3 = test system: SK-OV-3
MOLT-4 = test system: MOLT-4
MDA-N = test system: MDA-N
COLO 205 = test system: COLO 205
DU-145 = test system: DU-145
K562 = test system: K562
M14 = test system: M14
CAKI-1 = test system: CAKI-1
MDA-MB-435 = test system: MDA-MB-435
HCC 2998 = test system: HCC 2998
SF-268 = test system: SF-268
OVCAR-4 = test system: OVCAR-4
A549 = test system: A549
CCRF-CEM = test system: CCRF-CEM
ACHN = test system: ACHN
Hs-578T = test system: Hs-578T
LOX IMVI = test system: LOX IMVI
IGROV-1 = test system: IGROV-1
A498 = test system: A498
SNB-75 = test system: SNB-75
UACC-62 = test system: UACC-62
SF-295 = test system: SF-295
OVCAR-8 = test system: OVCAR-8
BT-549 = test system: BT-549
HOP-92 = test system: HOP-92
NCI-H522 = test system: NCI-H522
HL-60 = test system: HL-60
SN12C = test system: SN12C
T47D = test system: T47D
PC-3 = test system: PC-3
HCT-116 = test system: HCT-116
UO-31 = test system: UO-31
786-0 = test system: 786-0
NCI-H460 = test system: NCI-H460
HCT-15 = test system: HCT-15
SK-MEL-28 = test system: SK-MEL-28
Malme-3M = test system: Malme-3M
SR = test system: SR
TK-10 = test system: TK-10
SF-539 = test system: SF-539
EKVX = test system: EKVX
RXF 393 = test system: RXF 393
SK-MEL-5 = test system: SK-MEL-5
RPMI-8226 = test system: RPMI-8226

## O=C(O)C1CSC2(CCCN(Cc3ccccc3)C2)N1 (stereo unspecified)
SNB-19
  GI50: > 100 µM (inactive)
OVCAR-5
  GI50: > 100 µM (inactive)
U-251
  GI50: > 100 µM (inactive)
UACC-257
  GI50: > 100 µM (inactive)
SW-620
  GI50: > 100 µM (inactive)
KM12
  GI50: > 100 µM (inactive)
NCI-H226
  GI50: > 100 µM (inactive)
HT-29
  GI50: > 100 µM (inactive)
SK-MEL-2
  GI50: > 100 µM (inactive)
MCF7
  GI50: > 100 µM (inactive)
NCI/ADR-RES
  GI50: > 100 µM (inactive)
HOP-62
  GI50: > 100 µM (inactive)
NCI-H23
  GI50: > 100 µM (inactive)
OVCAR-3
  GI50: > 100 µM (inactive)
MDA-MB-231
  GI50: > 100 µM (inactive)
SK-OV-3
  GI50: > 100 µM (inactive)
MOLT-4
  GI50: > 20.7 µM (inactive)
MDA-N
  GI50: > 100 µM (inactive)
COLO 205
  GI50: > 100 µM (inactive)
DU-145
  GI50: > 100 µM (inactive)
K562
  GI50: > 28.8 µM (inactive)
M14
  GI50: > 100 µM (inactive)
CAKI-1
  GI50: > 100 µM (inactive)
MDA-MB-435
  GI50: > 76.7 µM (inactive)
HCC 2998
  GI50: > 100 µM (inactive)
SF-268
  GI50: > 100 µM (inactive)
OVCAR-4
  GI50: > 100 µM (inactive)
A549
  GI50: > 100 µM (inactive)
CCRF-CEM
  GI50: 23.4 µM (inactive)
ACHN
  GI50: > 100 µM (inactive)
Hs-578T
  GI50: > 100 µM (inactive)
LOX IMVI
  GI50: > 100 µM (inactive)
IGROV-1
  GI50: > 100 µM (inactive)
A498
  GI50: > 100 µM (inactive)
SNB-75
  GI50: > 100 µM (inactive)
UACC-62
  GI50: > 100 µM (inactive)
SF-295
  GI50: > 100 µM (inactive)
OVCAR-8
  GI50: > 100 µM (inactive)
BT-549
  GI50: > 100 µM (inactive)
HOP-92
  GI50: > 100 µM (inactive)
NCI-H522
  GI50: > 100 µM (inactive)
HL-60
  GI50: > 100 µM (inactive)
SN12C
  GI50: > 100 µM (inactive)
T47D
  GI50: > 100 µM (inactive)
PC-3
  GI50: > 100 µM (inactive)
HCT-116
  GI50: > 100 µM (inactive)
UO-31
  GI50: > 100 µM (inactive)
786-0
  GI50: > 100 µM (inactive)
NCI-H460
  GI50: > 100 µM (inactive)
HCT-15
  GI50: > 100 µM
SK-MEL-28
  GI50: > 100 µM (inactive)
Malme-3M
  GI50: > 100 µM (inactive)
SR
  GI50: 4.81 µM (inactive)
TK-10
  GI50: > 100 µM (inactive)
SF-539
  GI50: > 100 µM (inactive)
EKVX
  GI50: > 100 µM (inactive)
RXF 393
  GI50: > 100 µM (inactive)
SK-MEL-5
  GI50: > 100 µM (inactive)

## CNC1C(OC2C(OC3C(O)C(O)C(O)C(O)C3O)OC(C)C2(O)CO)OC(CO)C(O)C1O.N=C(N)N.NC(=O)O (stereo unspecified)
SNB-19
  GI50: > 100 µM (inactive)
OVCAR-5
  GI50: > 100 µM (inactive)
U-251
  GI50: > 100 µM (inactive)
UACC-257
  GI50: > 100 µM (inactive)
SW-620
  GI50: > 100 µM (inactive)
KM12
  GI50: > 100 µM (inactive)
NCI-H226
  GI50: > 100 µM (inactive)
HT-29
  GI50: > 100 µM (inactive)
SK-MEL-2
  GI50: > 100 µM (inactive)
MCF7
  GI50: > 100 µM (inactive)
NCI/ADR-RES
  GI50: > 100 µM (inactive)
HOP-62
  GI50: > 100 µM (inactive)
NCI-H23
  GI50: > 100 µM (inactive)
OVCAR-3
  GI50: > 100 µM (inactive)
MDA-MB-231
  GI50: > 100 µM (inactive)
SK-OV-3
  GI50: > 100 µM (inactive)
MOLT-4
  GI50: > 100 µM (inactive)
MDA-N
  GI50: > 100 µM (inactive)
COLO 205
  GI50: > 100 µM (inactive)
DU-145
  GI50: > 100 µM (inactive)
K562
  GI50: > 100 µM (inactive)
M14
  GI50: > 100 µM (inactive)
MDA-MB-435
  GI50: > 100 µM (inactive)
HCC 2998
  GI50: > 100 µM (inactive)
SF-268
  GI50: > 100 µM (inactive)
OVCAR-4
  GI50: > 100 µM (inactive)
A549
  GI50: > 100 µM (inactive)
CCRF-CEM
  GI50: > 100 µM (inactive)
ACHN
  GI50: > 100 µM (inactive)
Hs-578T
  GI50: > 100 µM (inactive)
LOX IMVI
  GI50: > 100 µM (inactive)
IGROV-1
  GI50: > 100 µM (inactive)
A498
  GI50: > 100 µM (inactive)
SNB-75
  GI50: > 100 µM (inactive)
RPMI-8226
  GI50: > 100 µM (inactive)
UACC-62
  GI50: > 100 µM (inactive)
SF-295
  GI50: > 100 µM (inactive)
OVCAR-8
  GI50: > 100 µM (inactive)
BT-549
  GI50: > 100 µM (inactive)
HOP-92
  GI50: > 100 µM (inactive)
NCI-H522
  GI50: > 100 µM (inactive)
HL-60
  GI50: > 100 µM (inactive)
SN12C
  GI50: > 100 µM (inactive)
T47D
  GI50: > 100 µM (inactive)
PC-3
  GI50: > 100 µM (inactive)
HCT-116
  GI50: > 100 µM (inactive)
UO-31
  GI50: > 100 µM (inactive)
786-0
  GI50: > 100 µM (inactive)
NCI-H460
  GI50: > 100 µM (inactive)
HCT-15
  GI50: > 100 µM
SK-MEL-28
  GI50: > 100 µM (inactive)
Malme-3M
  GI50: > 100 µM (inactive)
SR
  GI50: > 100 µM (inactive)
TK-10
  GI50: > 100 µM (inactive)
SF-539
  GI50: > 100 µM (inactive)
EKVX
  GI50: > 100 µM (inactive)
RXF 393
  GI50: > 100 µM (inactive)
SK-MEL-5
  GI50: > 100 µM (inactive)
